These results are taken from PubChem BioAssay (NCI).

The structures appear in SMILES notation. Where “and” joins values, the source holds several entries; their conditions need not be identical. Identical values can stand only once.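 Compound exposure: 48 hours, 5 concentrations, 96-well plates. Abbreviation: GI50, concentration required for 50% inhibition of growth. TGI: concentration producing complete growth inhibition.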

Some test systems named below: IGROV1 ovarian; ACHN renal; HOP-62 NSCLC; HCT-116 colon; NCI-H522 lung; CAKI-1 renal; HS 578T breast; SK-OV-3 ovarian; MCF7 breast; A498 renal.
What all share (assay): growth of human tumour cells (NCI), 48 h

Turning to `O=c1[nH]c(=O)n(C2OC(CO)C(O)C(O)C2O)cc1F` (configuration not stated), the TGI with IGROV1 ovarian, in the experiment on ACHN renal, in the experiment on HOP-62 NSCLC, with HCT-116 colon, in the experiment on NCI-H522 lung and in the experiment on CAKI-1 renal was more than 100 µM throughout. Also, the TGI with HS 578T breast, with SK-OV-3 ovarian, in the experiment with MCF7 breast and with A498 renal was more than 100 µM each time.
Regarding `O=C1OC(c2ccco2)=N/C1=C\c1cccc([N+](=O)[O-])c1`, the TGI with IGROV1 ovarian, in the experiment on ACHN renal, in the experiment on HOP-62 NSCLC, in the experiment with HCT-116 colon, in the experiment with NCI-H522 lung and in the experiment with CAKI-1 renal was more than 100 µM throughout. The TGI with HS 578T breast, in the experiment with SK-OV-3 ovarian, with MCF7 breast and in the experiment with A498 renal was more than 100 µM in each case.
In the case of `Cn1c2ccccc2c2c3[nH]c(=O)[nH]c(=O)c3c3c4ccccc4n(C)c3c21`, the GI50 in the experiment on IGROV1 ovarian was 2.14 µM; in the experiment with ACHN renal it was 1.33 µM; in the experiment with HOP-62 NSCLC, 2.03 µM; with HCT-116 colon, 2.37 µM; in the experiment with NCI-H522 lung, 1.9 µM; in the experiment with HS 578T breast, 2.44 µM. In addition, the GI50 in the experiment with SK-OV-3 ovarian was 1.75 µM; in the experiment on MCF7 breast, 1.9 µM; in the experiment with A498 renal, 0.0475 µM. The TGI is 12 µM in the experiment with IGROV1 ovarian; 6.62 µM in the experiment on ACHN renal; 5.83 µM in the experiment on HOP-62 NSCLC; 12.9 µM with HCT-116 colon; 12.8 µM in the experiment on NCI-H522 lung; 8.21 µM in the experiment on HS 578T breast. For the same molecule, the TGI in the experiment with SK-OV-3 ovarian is 5.79 µM; in the experiment with MCF7 breast, more than 100 µM; with A498 renal it was 4.37 µM.
On to `CC(C)(C)c1cc(NC(=O)Cc2ccc(-c3cnc4cc(-c5cnn(CCN6CCOCC6)c5)ccc4n3)cc2)no1`, for which the GI50 is 0.106 µM and 0.104 µM with IGROV1 ovarian; 0.151 µM and 0.302 µM and 0.0394 µM in the experiment with ACHN renal; 0.226 µM and 0.417 µM and 0.0705 µM with HCT-116 colon; 0.298 µM and 0.465 µM and 0.0962 µM in the experiment on NCI-H522 lung; 0.123 µM and 0.219 µM and 0.0253 µM in the experiment with CAKI-1 renal; 0.132 µM and 0.235 µM and 0.0377 µM in the experiment on HS 578T breast. In addition, the GI50 with SK-OV-3 ovarian is 0.369 µM; with MCF7 breast, 0.301 µM and 0.806 µM and 0.194 µM; in the experiment with A498 renal it was 0.0663 µM and 0.0152 µM. The TGI is 0.65 µM and 1.11 µM in the experiment with IGROV1 ovarian; 50 µM and > 100 µM and > 3 µM in the experiment on ACHN renal; 50 µM and > 100 µM and > 3 µM with HOP-62 NSCLC; 50 µM and > 100 µM and > 3 µM in the experiment on HCT-116 colon; 50 µM and > 100 µM and > 3 µM with NCI-H522 lung; 50 µM and > 100 µM and > 3 µM in the experiment with CAKI-1 renal. The TGI was 1.56 µM and 2.88 µM and > 2.8 µM with HS 578T breast; 2.66 µM in the experiment with SK-OV-3 ovarian; 50 µM and > 100 µM and > 3 µM in the experiment on MCF7 breast; 0.425 µM and 0.0791 µM with A498 renal.
As to `Cc1nc(-c2ccccc2)c(-c2ccccc2)s1`, the TGI in the experiment on IGROV1 ovarian is 95.3 µM; in the experiment with ACHN renal, 97.9 µM; in the experiment with HOP-62 NSCLC, more than 100 µM; in the experiment on HCT-116 colon, 68.8 µM; with NCI-H522 lung it was 37.7 µM; in the experiment on CAKI-1 renal, 62.3 µM. The TGI in the experiment on HS 578T breast was 47.2 µM; in the experiment on SK-OV-3 ovarian, more than 100 µM; with MCF7 breast, 62.3 µM; in the experiment with A498 renal it was 64.4 µM.
Take `Cc1ccc2[nH]c(C(=O)NN3C(=O)C(C)SC34CCCC(C)C4)c(-c3ccccc3)c2c1` (configuration not stated): the GI50 in the experiment with IGROV1 ovarian is 59.1 µM; in the experiment on ACHN renal it was more than 100 µM; with HOP-62 NSCLC it was more than 100 µM; in the experiment with HCT-116 colon it was 75.7 µM; with NCI-H522 lung it was 78 µM; with CAKI-1 renal, 95.5 µM. Further, the GI50 with HS 578T breast is 87.8 µM; in the experiment on SK-OV-3 ovarian, more than 100 µM; in the experiment with MCF7 breast, 32.7 µM; with A498 renal, more than 100 µM. Further, the TGI with IGROV1 ovarian, in the experiment with ACHN renal, in the experiment with HOP-62 NSCLC, in the experiment with HCT-116 colon, in the experiment on NCI-H522 lung and in the experiment on CAKI-1 renal was more than 100 µM throughout. In addition, the TGI in the experiment on HS 578T breast, with SK-OV-3 ovarian, in the experiment on MCF7 breast and with A498 renal was more than 100 µM in each case.
Consider `Nc1nc(-c2cccc(Cl)c2)c(-c2ccc3ncccc3n2)s1`, for which the GI50 is 22.4 µM with IGROV1 ovarian; more than 25 µM with ACHN renal; more than 25 µM in the experiment on HOP-62 NSCLC; more than 25 µM with HCT-116 colon; more than 25 µM in the experiment with NCI-H522 lung; more than 25 µM with CAKI-1 renal. Also, the GI50 was more than 25 µM with HS 578T breast, more than 25 µM in the experiment with SK-OV-3 ovarian, more than 25 µM with MCF7 breast and 8.4 µM in the experiment with A498 renal. Also, the TGI in the experiment on IGROV1 ovarian, in the experiment on ACHN renal, in the experiment with HOP-62 NSCLC, in the experiment on HCT-116 colon, with NCI-H522 lung and in the experiment with CAKI-1 renal was more than 25 µM each time. In addition, the TGI with HS 578T breast, in the experiment with SK-OV-3 ovarian, in the experiment on MCF7 breast and in the experiment on A498 renal was more than 25 µM each time.
On to `O=C1/C(=C/c2ccc(O)cc2)CSc2ccc(Cl)cc21`, for which the GI50 with IGROV1 ovarian is 7.58 µM; in the experiment with ACHN renal, 11.9 µM; in the experiment on HOP-62 NSCLC it was 14.2 µM; in the experiment on HCT-116 colon, 7.08 µM; in the experiment on NCI-H522 lung, 3.25 µM; with CAKI-1 renal it was 21.2 µM. For the same molecule, the GI50 in the experiment on HS 578T breast is 2.9 µM; in the experiment with SK-OV-3 ovarian, 23 µM; in the experiment with MCF7 breast, 0.651 µM; with A498 renal, 15 µM. Besides, the TGI is 51 µM with IGROV1 ovarian; 24.3 µM with ACHN renal; 45 µM in the experiment with HOP-62 NSCLC; more than 100 µM with HCT-116 colon; 10.7 µM with NCI-H522 lung; 52 µM in the experiment with CAKI-1 renal. The TGI in the experiment on HS 578T breast was 7.36 µM; in the experiment on SK-OV-3 ovarian, 44.6 µM; with MCF7 breast it was 11 µM; in the experiment with A498 renal it was 28.4 µM.
`Cc1ccc2c(c1)CN(C(=O)CCC(=O)OCc1ccccc1)c1ccc(C)cc1CN2C(=O)CCC(=O)OCc1ccccc1`: the TGI in the experiment on IGROV1 ovarian, in the experiment with ACHN renal, in the experiment on HOP-62 NSCLC, in the experiment with HCT-116 colon, in the experiment on NCI-H522 lung and in the experiment with CAKI-1 renal was more than 100 µM throughout. The TGI in the experiment on HS 578T breast, with SK-OV-3 ovarian, in the experiment on MCF7 breast and in the experiment on A498 renal was more than 100 µM each time.
